Laboratory results taken from patent US6902748B1, “Medicines manufactured from old platycodon extracts” (Jang Saeng Doraji Co., Ltd, priority 1999, dated 2005).

System: edema of both feet of SD-rats
Test: Edema suppression in rheumatic arthritis model (heat-killed Mycobacterium injected into right sole)
Assay type: in vivo
Settings: 4 mg/day; about 20 days after injection
Description: At about 20 days after injection of 0.6 mg/kg heat-killed 5. Mycobacterium histolyticm to the right sole of the feet of SD-rats, the degree of inhibition against inflammation was investigated by measuring the size of edema of both feet. The rats were divided into 7 groups and examined; feed group (group A) as a control group, not being caused edema, group B which was fed with 4 mg/day of predisolone as edema suppression agents, group C which was fed with 160 mg/day of ordinary platycodon extract, group D which was fed with 20 mg/day of 14 kinds of herbal medicine extract, group E which was fed with 160 mg/day of the old platycodon extract, group F which was fed with 40 mg/day of herbal medicine extract and 160 mg/day of the old platycodon extract. Each group was assigned to have 6 SD-rats.

Structure (SMILES): C[C@]12C=CC(=O)C=C1CC[C@@H]1[C@@H]2[C@@H](O)C[C@@]2(C)[C@H]1CC[C@]2(O)C(=O)CO [predisolone]
- Edema suppression activity in the left foot: 83.8%
- Edema suppression activity in the right foot: 84.5%
